The values below come from the NIST ThermoML archive (doi:10.1016/j.tca.2019.03.026).

Numbers after ± are expanded uncertainties.

The conditions of data set [1]: for Normal melting temperature: DTA.
Data set [2] can be described thus: Molar enthalpy of transition or fusion. Particulars: DSC.

Take `Cc1ccc(C)c(OCCCC(C)(C)C(=O)O)c1` [gemfibrozil]: the figures for the Normal melting temperature in data set [1] (Crystal) and in data set [1] (Metastable crystal) were 59.00 ± 0.4 °C and 58.00 ± 0.4 °C, respectively. Moreover, the Glass transition temperature in data set [1] (Glass, DSC) is -32.00 ± 1 °C. The “Molar enthalpy of transition or fusion” value was 28.3 ± 1.9 kJ/mol in data set [2] (Crystal) and 25.9 ± 2.1 kJ/mol in data set [2] (Metastable crystal).
